{"source": "paper PMC7464078", "about": "“CYP3A Excipient-Based Microemulsion Prolongs the Effect of Magnolol on Ischemia Stroke Rats” (Pharmaceutics, 2020)", "origin": "cited, not measured here", "key": {"[1]": {"test_system": "rat CYP2E1"}, "[2]": {"test_system": "rat CYP3A"}, "[3]": {"design": "method as in PMID 21638244"}, "[4]": {"test_system": "human CYP3A4"}, "[5]": {"test_system": "rat CYP1A2"}, "[6]": {"test_system": "CYP3A", "design": "method as in PMID 14716751, PMID 11137342", "settings": "hepatocytes and liver microsomes"}}, "note": "Like-named read-outs stand apart in the source and are kept apart here."}
{"compound": "C=CCc1ccc(O)c(-c2cc(CC=C)ccc2O)c1", "note": "[Magnolol, 5,5′-diallyi-2,2′-dihydroxybiphenyl]", "values": [{"measurement": "Inhibition of rat CYP2E1", "setting": "[1]; in vitro", "result": "relatively strong inhibitors"}, {"measurement": "Inhibition of rat CYP3A", "setting": "[2]; in vitro", "result": "weak inhibitors"}, {"measurement": "Bioavailability", "setting": "[3]", "result": 4, "unit": "%"}, {"measurement": "Inhibition of human CYP3A4", "setting": "[4]; in vitro", "result": "weak inhibitors"}, {"measurement": "Inhibition of rat CYP1A2", "setting": "[5]; in vitro", "result": "relatively strong inhibitors"}, {"measurement": "Water solubility", "setting": "at 25 °C", "result": 1.24, "unit": "mg/L"}, {"measurement": "Solubility in dimethyl sulfoxide", "setting": "ref Item No. 14233, Cyman Chemical", "result": "approximately 16 mg/mL"}]}
{"compound": "C=CCc1ccc(O)c(-c2ccc(O)c(CC=C)c2)c1", "note": "[honokiol]", "values": [{"measurement": "Inhibition of rat CYP2E1", "setting": "[1]", "result": "relatively strong inhibitors"}, {"measurement": "Inhibition of rat CYP3A", "setting": "[2]", "result": "weak inhibitors"}, {"measurement": "Inhibition of human CYP3A4", "setting": "[4]", "result": "weak inhibitors"}, {"measurement": "Inhibition of rat CYP1A2", "setting": "[5]", "result": "relatively strong inhibitors"}]}
{"compound": "Tween-80", "values": [{"measurement": "Effect on CYP3A activity", "setting": "[6]", "result": "inhibited"}]}
